Target: T1, Recombinant human AOC1/DAO protein (Homo sapiens, UniProt P19801)
T1 construct: purchased R&D systems 8298-AO
T1 sequence (P19801 20-751): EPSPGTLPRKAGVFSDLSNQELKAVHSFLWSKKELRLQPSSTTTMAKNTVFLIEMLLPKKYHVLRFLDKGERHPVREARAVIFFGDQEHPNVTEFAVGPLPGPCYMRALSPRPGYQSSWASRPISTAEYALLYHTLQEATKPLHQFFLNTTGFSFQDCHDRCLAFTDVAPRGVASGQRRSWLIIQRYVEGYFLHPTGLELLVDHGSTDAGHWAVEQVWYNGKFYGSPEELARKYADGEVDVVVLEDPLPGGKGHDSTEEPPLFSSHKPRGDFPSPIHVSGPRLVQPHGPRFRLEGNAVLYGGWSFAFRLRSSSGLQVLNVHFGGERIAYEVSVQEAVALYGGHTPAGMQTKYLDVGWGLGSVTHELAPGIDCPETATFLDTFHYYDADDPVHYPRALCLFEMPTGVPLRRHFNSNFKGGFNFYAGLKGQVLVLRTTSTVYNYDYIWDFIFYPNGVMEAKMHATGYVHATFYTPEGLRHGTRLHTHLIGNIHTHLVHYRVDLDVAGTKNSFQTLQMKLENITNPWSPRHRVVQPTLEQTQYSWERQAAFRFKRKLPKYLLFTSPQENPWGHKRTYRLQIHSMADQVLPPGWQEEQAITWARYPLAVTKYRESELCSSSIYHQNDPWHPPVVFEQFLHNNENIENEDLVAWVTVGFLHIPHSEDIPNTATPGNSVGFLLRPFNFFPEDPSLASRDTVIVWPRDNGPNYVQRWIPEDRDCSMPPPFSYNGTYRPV
Assay: Inhibitory activity on AOC1 (Amplex UltraRed)
Format: biochemical
Protocol: Recombinant human AOC1/DAO protein was purchased from R&D systems (Cat: 8298-AO). Amplex UltraRed was purchased from Thermo scientific (Cat: A36006). HRP (Cat: P8250) and Putrescine (Cat: V900377) were purchased from Sigma. Enzyme reaction buffer (50 mM HEPES, 120 mM NaCl, 5 mM KCl, 2 mM CaCl2, 1.4 mM MgCl2, 0.001% Tween-20, pH7.4) was prepared. Test compound was dissolved in DMSO and diluted by 3-fold concentration in gradient. The final concentration of test compound in 10 μL reaction system was 100 μM to 5 nM when AOC1 was detected. The content of DMSO in detection reaction was 1%. After the solution of test compound in DMSO was diluted in the enzyme reaction buffer at a volume ratio of 1:25, 10 μL of mixture was added to each well of detection plate. 4× substrate mixture (containing 400 μM Putrescine, 4 U/mL HRP, 4 μM Amplex UltraRed) was prepared in the enzyme reaction buffer, 10 μL of which was added to each well. 20 μL of AOC1 protein diluted in enzyme reaction buffer was added to each well at final concentration 0.4 nM in 40 μL reaction system. Synergy Neo 2 was used to read the plate for detection. The instrument was set at 30° C., 530 nm excitation wavelength, 590 nm emission wavelength. Detection was conducted once every minute for 30 minutes continuously. The enzyme activity was calculated based on the increased signal of each well from the 10th minute to the 30th minute. The value was converted into inhibition rate by the following formula Inhibition rate=(Signalpositive−Signaltest)/(Signalpositive−Signalnegative)×100%
Signalpositive was positive control without test compound. Signalnegative was negative control without test compound and AOC1, and Signaltest was detection value of different compounds at each concentration. IC50 value was calculated by using 4 parameter curve fitting.

| SMILES | IC50 [µM] |
| --- | --- |
| COC1CC2CCC(C1)N2c1ncc(OC/C(=C/F)CN)cn1 (centres unmarked) [Example 12] | > 10 |
| CC1(C)CN(c2ncc(OC/C(=C/F)CN)cn2)CCN1C1COC1 [Example 10] | > 10 |
| NC/C(=C/F)COc1cnc(N2CCN(C3COC3)CC2)nc1 [Example 8] | > 10 |
| NC/C(=C\F)COc1cnc(N2CC3CCC(C2)N3C2COC2)nc1 [Example 6] | > 10 |
| CC1(C)CN(C2COC2)CCN1c1ncc(OC/C(=C/F)CN)cn1 [Example 5] | > 10 |
| CC1CN(c2ncc(OC/C(=C/F)CN)cn2)CC(C)N1C1COC1 (centres unmarked) [Example 1, (E)-2-(((2-(3,5-dimethyl-4-(oxbutan-3-yl)piperazin-1-yl)pyrimidin-5-yl)oxo)methyl)-3-fluoroprop-2-en-1-amine] | > 10 |

Results, then the compound that gave them:

| IC50 [µM] | SMILES |
| --- | --- |
| > 10 | NC/C(=C\F)COc1cnc(N2CCN(C3COC3)CC2)nc1 [Example 4, (E)-3-fluoro-2-(((2-(4-(oxbutan-3-yl)piperazin-1-yl)pyrimidin-5-yl)oxo)methyl)prop-2-en-1-amine] |
| 0.1 to 10 | NC/C(=C\F)COc1cnc(N2CCC3(CC2)COC3)nc1 [Example 3] |
| 0.1 to 10 | COC1CC2CC1CN2c1ncc(OC/C(=C/F)CN)cn1 (centres unmarked) [Example 2] |
| > 10 | N#Cc1cc(OC/C(=C/F)CN)cnc1N1CCN(C2COC2)CC1 [Example 7] |
| 0.1 to 10 | NC/C(=C\F)COc1cnc(N2CCN(c3cnc(N4CCN(C5COC5)CC4)nc3)CC2)nc1 [Example 9] |
